# Test results reported in patent publication US10604512B2, “3-(1H-indol-2-yl)-1H-indazoles and therapeutic uses thereof” (Samumed, LLC, priority 2015, dated 2020).
# What was measured:
# Type in all cases: cell-based
# [1] = test system: Wnt activity (Sp5-Luc reporter, TCF/LEF binding sites) in SW480 colon carcinoma cells; experiment: Screening assay for Wnt activity: Sp5-Luc reporter gene assay in stably transduced SW480 colon carcinoma cells; conditions: Homo sapiens, overnight incubation, 10-point curve from 10 μM
# In short: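 SW480 cells stably transduced with a luciferase reporter driven by an Sp5 promoter of eight TCF/LEF sites were plated at 4,000 cells/well in 1% FBS medium. They were exposed overnight at 37° C to a 10-point 1:3 dilution series from 10 μM (0.1% DMSO). Luminescence was normalized to DMSO for four-parameter EC50, or percent inhibition at 10 μM.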
# SW480 colon cancer cells = experiment: Cell viability assay (CellTiter-Blue) in SW480 colon cancer cells; conditions: Homo sapiens, 96 h, four days, CellTiter-Blue
# In short: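 Approximately 2×10^3 SW480 cells per well are seeded with compound (8 points, threefold steps, top 10 μM) and incubated four days at 37 °C. CellTiter-Blue is then added for about 3 h and fluorescence read. Non-linear regression gives EC50; for values beyond 10 μM, percent inhibition at that concentration is listed.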
# [2] = test system: Primary human fibroblasts derived from IPF patients (LL29 cells) treated with TGF-β1; experiment: Inhibition of the fibrotic process: αSMA staining in TGF-β1-treated primary human fibroblasts from IPF patients (LL29 cells); conditions: Fibroblast, 96 h, % αSMA-positive LL29 cells, TGF-β1 20 ng/mL, 4 days
# In short: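 LL29 IPF-patient fibroblasts in 1% FBS stimulated with TGF-β1 (20 ng/mL) and compound (10 μM–1.87 nM, 0.1% DMSO) for 4 days at 37 °C. SYTOX-positive cells excluded; % αSMA-positive cells imaged, normalized to TGF-β1/DMSO wells; EC50 by nonlinear regression, else % inhibition at 10 μM.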
# IL-6 = experiment: Inhibition of IL-6 in LPS-stimulated THP-1 human monocyte cells (HTRF); conditions: IL-6 inhibition, LPS-stimulated THP-1 cells, HTRF
# In short: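 THP-1 cells serum-reduced (1% FBS, 24 h), then 5000 cells/well preincubated 2 h with compound (10-point 1:3 series from 10 μM, 0.1% DMSO) before 500 ng/mL LPS for 22 h at 37 °C. Secreted IL-6 quantified by HTRF 665/620 ratio; DMSO-normalised duplicates fitted to four-parameter EC50; above 10 μM, % inhibition at 10 μM given.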
# [3] = test system: primary human mesenchymal stem cells (hMSCs); experiment: Induction of chondrogenesis in primary human mesenchymal stem cells (nodule imaging, Rhodamine B / Nile Red)
# Protocol: Representative compounds were screened using primary human mesenchymal stem cells (hMSCs) to determine their ability to induce chondrogenesis (process by which cartilage is developed).
# Primary human mesenchymal stem cells (hMSCs) were purchased from Lonza (Walkersville, Md.) and expanded in Mesenchymal Stem Cell Growth Media (Lonza). Cells between passage 3 and 6 were used for the experiments.
# Each compound was dissolved in DMSO as a 10 mM stock and used to prepare compound source plates. For the 96 well assay, serial dilution (1:3, 6-point dose-response curves from 2700 nM to 10 nM) and compound transfer was performed using the ECHO 550 (Labcyte, Sunnyvale, Calif.) into 96-well clear bottom assay plates (Greiner Bio-One) with appropriate DMSO backfill for a final DMSO concentration of 0.03%. hMSCs were plated at 20,000 cells/well in 250 μL/well Incomplete Chondrogenic Induction Medium (Lonza; DMEM, dexamethasone, ascorbate, insulin-transferrin-selenium [ITS supplement], gentamycin-amphotericin [GA-1000], sodium pyruvate, proline and L-glutamine). TGF-β3 (10 ng/mL) was used as a positive control for differentiation while negative control wells were treated with 75 nL DMSO for normalization and calculating EC50 values. For the 384 well assay, serial dilution (1:3, 8-point dose-response curves from 5000 nM to 2.2 nM) and compound transfer was performed using the ECHO 550 (Labcyte, Sunnyvale, Calif.) into 384-well clear bottom assay plates (Greiner Bio-One) with appropriate DMSO backfill for a final DMSO concentration of 0.03%. hMSCs were plated at 8,000 cells/well in 80 μL/well Incomplete Chondrogenic Induction Medium (Lonza; DMEM, dexamethasone, ascorbate, insulin-transferrin-selenium [ITS supplement], gentamycin-amphotericin [GA-1000], sodium pyruvate, proline and L-glutamine). TGF-β3 (10 ng/mL) was used as a positive control for differentiation while negative control wells were treated with 25 nL DMSO for normalization and calculating EC50 values. Cells were incubated at 37° C. and 5% CO2 for 6 days. To image chondrogenic nodules, the cells were fixed using 4% formaldehyde (Electron Microscopy Sciences), and stained with 2 μg/mL Rhodamine B (Sigma-Aldrich) and 20 μM Nile Red (Sigma-Aldrich) [Johnson K., et. al, A Stem CellBased Approach to Cartilage Repair, Science, (2012), 336(6082), 717-721]. The nodules imaged (25 images per well for 96 well plates and 9 images per well for 384 well plates at 10× magnification) by excitation at 531 nm and emission at 625 nm and quantified using the CellInsight CX5 (Thermo Scientific). Area of nodules in each well was normalized to the average of 3 DMSO treated wells on the same plate using Excel (Microsoft Inc.). The normalized averages (fold change over DMSO) of 2 or 3 replicate wells for each compound concentration were calculated. Due to solubility limitations of some of the compounds, curve fitting was incomplete leading to inaccurate EC50 determinations.
# Using TGF-β3 as a positive control, the concentration of representative compounds required to induce 50% levels of chondrogenesis is reported. In addition, the maximum activity of each compound and the respective dose that each compound reached maximum chondrogenesis activity is reported.
Structure (SMILES),EC50 [1] [nM],EC50 (SW480 colon cancer cells) [nM],EC50 [2] [nM],EC50 (IL-6) [nM],"EC50 ([3]; concentration required to induce 50% levels of chondrogenesis vs TGF-β3 positive control, read-out: Conc (nM) of 50% TGF-β3 activity) [nM]","Emax ([3]; maximum chondrogenesis activity relative to TGF-β3 (10 ng/mL) positive control, read-out: Max. Activity as % TGF-β3 activity) [%]"
"Cn1cc(-c2ccc3[nH]nc(-c4cc5c(-c6cccnc6)cccc5[nH]4)c3c2)cn1 [Compound 584, 5-(1-Methyl-1H-pyrazol-4-yl)-3-(4-(pyridin-3-yl)-1H-indol-2-yl)-1H-indazole]",150,949,6820,12,–,–
"NC1CN(c2cncc(-c3ccc4[nH]nc(-c5cc6c(N7CCCCC7)cccc6[nH]5)c4c3)n2)C1 [Compound 634, 1-(6-(3-(4-(piperidin-1-yl)-1H-indol-2-yl)-1H-indazol-5-yl)pyrazin-2-yl)azetidin-3-amine]",468,1250,794,74,–,–
"COc1cncc(-c2ccc3[nH]nc(-c4cc5c(-c6ccsc6)cccc5[nH]4)c3c2)c1 [Compound 704, 5-(5-Methoxypyridin-3-yl)-3-(4-(thiophen-3-yl)-1H-indol-2-yl)-1H-indazole]",565,1800,31,245,–,–
"O=C(CC1CCCCC1)Nc1cncc(-c2ccc3[nH]nc(-c4cc5c(-c6ccsc6)cccc5[nH]4)c3c2)c1 [Compound 707, 2-Cyclohexyl-N-(5-(3-(4-(thiophen-3-yl)-1H-indol-2-yl)-1H-indazol-5-yl)pyridin-3-yl)acetamide]",570,2130,> 10000,1300,–,–
"CN(C)CCOc1cncc(-c2ccc3[nH]nc(-c4cc5c(-c6ccoc6)cccc5[nH]4)c3c2)c1 [Compound 719, 2-((5-(3-(4-(Furan-3-yl)-1H-indol-2-yl)-1H-indazol-5-yl)pyridin-3-yl)oxy)-N,N-dimethylethan-1-amine]",680,1370,1950,1710,–,–
"COc1cncc(-c2ccc3[nH]nc(-c4cc5c(-c6ccoc6)cccc5[nH]4)c3c2)c1 [Compound 720, 3-(4-(Furan-3-yl)-1H-indol-2-yl)-5-(5-methoxypyridin-3-yl)-1H-indazole]",588,1400,–,329,10,151
"c1cc(-c2ccoc2)c2cc(-c3n[nH]c4ccc(-c5cnccn5)cc34)[nH]c2c1 [Compound 724, 3-(4-(Furan-3-yl)-1H-indol-2-yl)-5-(pyrazin-2-yl)-1H-indazole]",791,3510,96,31,–,–
"CS(=O)(=O)NCc1cc(F)cc(-c2cccc3[nH]c(-c4n[nH]c5ccc(-c6cncc(OCc7ccccc7)c6)cc45)cc23)c1 [Compound 802, N-(3-(2-(5-(5-(Benzyloxy)pyridin-3-yl)-1H-indazol-3-yl)-1H-indol-4-yl)-5-fluorobenzyl)methanesulfonamide]",189,461,400,802,–,–
"CN(C)CCNc1cc(F)cc(-c2cccc3[nH]c(-c4n[nH]c5ccc(-c6cnn(C)c6)cc45)cc23)c1 [Compound 808, N^1-(3-Fluoro-5-(2-(5-(1-methyl-1H-pyrazol-4-yl)-1H-indazol-3-yl)-1H-indol-4-yl)phenyl)-N^2,N^2-dimethylethane-1,2-diamine]",69,89,88,6,–,–
"CN(C)CCNc1cc(F)cc(-c2cccc3[nH]c(-c4n[nH]c5ccc(-c6cncc(N7CC(N)C7)n6)cc45)cc23)c1 [Compound 810, N^1-(3-(2-(5-(6-(3-Aminoazetidin-1-yl)pyrazin-2-yl)-1H-indazol-3-yl)-1H-indol-4-yl)-5-fluorophenyl)-N^2,N^2-dimethylethane-1,2-diamine]",224,458,653,77,–,–
